# From patent US20220152174A1, “Cancer Antigen Peptide” (National University Corporation Asahikawa Medical University, priority 2018, published 2022)
# Key:
# [1] = system: SYCP3-A-specific Th cells; assay: IFN-γ ELISA of SYCP3-A peptide-specific Th cells co-cultured with PBMCs; type: cell-based, human; details: for IFN-γ production of SYCP3-A peptide-specific Th cells: peptide 3 μg/mL, Th cells plus PBMCs of same donor
# Experimental: PBMCs were collected from peripheral blood samples of healthy donors by a density gradient separation method using Lymphoprep (Alere Technologies AS 1114547). CD14 positive cells were separated from PBMCs using a magnetic cell separation system (Miltenyi 130-050-201). Differentiation into dendritic cells (DCs) was induced by culturing the cells in the presence of 50 ng/mL GM-CSF (peprotech AF-300-03) and 50 ng/mL IL-4 (peprotech AF-200-04) with 3 mL of a culture medium for human cells in 6-well culture plates (Falcon 353046) for 7 days. The culture medium was AIM-V medium (ThermoFisher SCIENTIFIC 0870112DK) supplemented with 3% of human AB serum (Innovative RESEARCH IPLA-SERAB) inactivated at 56° C. for 30 minutes. Similarly, CD4-positive T-cells were isolated from PBMCs (Miltenyi 130-045-101), and 1×10^5 CD4-positive T-cells were co-cultured with 5×10^4 DCs in the presence of SYCP3-A or SPESP1-B peptide (3 μg/mL) in 96-well flat bottom culture plates (Falcon 353072) at the volume of 200 μL. After 7 days, in order to stimulate the CD4-positive T-cells with the peptide, 100 μL of the culture supernatant was removed from each well, and then SYCP3-A or SPESP1-B peptide (3 μg/mL) and PBMCs (2×10^5) inactivated by gamma-irradiation (40 Gy) were added at the volume of 100 μL. After 2 days, 50 μL of the culture supernatant was removed, and 50 μL of IL-2 (Imunace35, Shionogi) was added at the final concentration of 10 U/mL. For continuous proliferation of the activated CD4-positive T-cells, the cells (1×10^6 cells) were stimulated with SYCP3-A or SPESP1-B peptide and the inactivated PBMCs (1×10^6 cells) every other week and used for the experiments described below.
# In order to study the HLA-restriction of the CD4-positive T-cells, an anti-DR antibody (BioLegend 307612) or an anti-HLA-class I antibody (BioLegend 311412) as a control was added to some cultures at the final concentration of 5 μg/mL.
# HLA-DR53 [2] = molecular target: T1, HLA-DR53 (Homo sapiens, UniProt P01903+P13762); assay: HLA type restriction of SYCP3-A with L-DR mouse fibroblast cells; type: cell-based; details: SYCP3-A 3 μg/mL, L-DR53 cells, 24 to 48 hours
# T1 construct: expressed in transfected cells; host or cells: mouse fibroblast cell line L-DR53
# Experimental: (§2) Furthermore, in order to identify the HLA type to which the peptide is restricted, the CD4-positive T-cells (5×10^4 cells) and 3×10^4 cells of a mouse fibroblast cell line having HLA-DR4, DR8, DR9, or DR53 gene (L-DR4, L-DR8, L-DR9, or L-DR53) were co-cultured in the presence of SYCP3-A peptide (3 μg/mL) in 96-well flat bottom culture plates using 200 μL of the culture medium for human cells, and after 24 to 48 hours the IFN-γ concentrations in the culture supernatants were determined as described above.
# HLA-DR53 [3] = assay: as above; type: cell-based, human; details: SYCP3-A 3 μg/mL
# Experimental: as §2
# DAZL1-specific Th cells = assay: IFN-γ ELISA of DAZL-1 peptide-specific Th cells; type: cell-based, human
# Experimental: (§1) PBMCs were collected from peripheral blood samples of healthy donors by a density gradient separation method using Lymphoprep (Alere Technologies AS 1114547). CD14 positive cells were separated from PBMCs using a magnetic cell separation system (Miltenyi 130-050-201). Differentiation into dendritic cells (DCs) was induced by culturing the cells in the presence of 50 ng/mL GM-CSF (peprotech AF-300-03) and 50 ng/mL IL-4 (peprotech AF-200-04) with 3 mL of a culture medium for human cells in 6-well culture plates (Falcon 353046) for 7 days. The culture medium was AIM-V medium (ThermoFisher SCIENTIFIC 0870112DK) supplemented with 3% of human AB serum (Innovative RESEARCH IPLA-SERAB) inactivated at 56° C. for 30 minutes. Similarly, CD4-positive T-cells were isolated from PBMCs (Miltenyi 130-045-101), and 1×10^5 CD4-positive T-cells were co-cultured with 5×10^4 DCs in the presence of SYCP3-A or SPESP1-B peptide (3 μg/mL) in 96-well flat bottom culture plates (Falcon 353072) at the volume of 200 μL. […]
# The IFN-γ concentrations of the culture supernatants were determined in the same manner as in Test 8, except that partial DAZL-1 peptide p11, p12, or p13 was used instead of SYCP3-A peptide. […]
# [4] = system: HLA-DR4, DR8, DR9, DR15, DR53; assay: HLA type restriction of partial DAZL-1 peptides with L-DR cells; type: cell-based, human
# CD4-positive T-cells = assay: IFN-γ ELISPOT after peptide vaccination of HLA transgenic mice; type: in vivo, mouse; details: A2.DR1-Tg mice vaccinated with partial peptides, stimulation 3 μg/mL, 24 hours
# Experimental: HLA-A*02:01/DRB1*01:01 transgenic mice (A2.DR1-Tg mice, […]; Pasteur Institute, France) were intradermally injected with SYCP3-A peptide (synthesized by GenScript) dissolved in 100 μL of PBS using Myjector on Days […]. The mice were euthanized by intraperitoneally administering 200 μL of 500 μg/mL pentobarbital on Day 15. After laparotomy, tumor-draining lymph nodes (dLNs) and spleens were collected and lymphocytes and splenocytes, respectively, were isolated.
# The lymphocytes (3×10^5 cells) and the splenocytes (5×10^5 cells) were added to ELISPOT plates (EMD Millipore, MAHAS4510), and the cells were co-cultured in the presence of a control peptide (a peptide of 15 amino acid residues having a sequence not included in SYCP3) or SYCP3-A peptide selected in Test 4 (3 μg/mL) in the complete medium at 150 μL/well for […]. In order to detect the cells producing IFN-γ specifically to SYCP3-A peptide, the ELISPOT assay was performed using a mouse IFN-γ ELISpot BASIC (ALP) kit (MABTECH 3321-2A). The procedure was in accordance with the description of the attached package insert. BCIP-NBT-plus substrate for ELISpot (MABTECH 3650-10) was used as a chromogenic substrate, and PBS-T was used for washing at each step. In addition, in order to confirm that the reaction is produced by CD4-positive T-cells, an anti-mouse CD4 antibody (BioLegend 100435) or an anti-mouse CD8 antibody (BioLegend 100735) was added to some cultures at the final concentration of 5 μg/mL.
# As described above, A2.DR1-Tg mice were vaccinated with these partial peptides, dLNs and spleens were collected from each mouse, lymphocytes and splenocytes were isolated, the cells were stimulated with each partial peptide (3 μg/mL) for 24 hours, and the T-cell responses were determined by ELISPOT. CD4-positive T-cells responded to the partial peptides T2, T3, and T4.
# [5] = system: SYCP3, SPESP1, and DAZL1 gene expression in EBC1, Lu65, and HT-29; assay: Gene expression in cancer cell lines cultured with gemcitabine; type: cell-based, human; details: EBC1, Lu65, HT-29 cultured in the presence of gemcitabine
# helper T-cells = assay: IFN-γ ELISA after DAZL-1C vaccination of Balb/c mice; type: in vivo, mouse
# Experimental: Two BALB/cAnNCrlCrlj mice (Balb/c, 10 to 16 weeks old, Charles river) were intradermally injected with 100 μg/50 μL DAZL-1C peptide ([…] (SEQ ID NO: 20): synthesized by GenScript) dissolved in phosphate-buffered saline (PBS, KANTO CHEMICAL CO., INC. 73111) using Myjector (TERUMO SS_05M2913) on Days 0 and 10. The mice were euthanized by intraperitoneally administering 200 μL of 500 μg/mL pentobarbital (nacalai tesque 02095-04) on Day 12. After laparotomy, dLNs and spleens were collected and lymphocytes and splenocytes, respectively, were isolated.
# The lymphocytes (3×10^5 cells) and the splenocytes (5×10^5 cells) were added to 96-well flat bottom culture plates (Falcon 353072), and the cells were co-cultured in the presence of a control peptide or DAZL-1C peptide (2.5 μg/mL) in the complete medium at 200 μL/well for 24 hours. In order to detect IFN-γ production specific to DAZL-1C peptide, each 100 μL of the culture supernatants after 24 hours were collected, and the IFN-γ concentrations were determined using an ELISA set (BD Biosciences 551866) in accordance with the description of the attached package insert. In order to confirm that the reaction is produced by CD4-positive T-cells, an anti-mouse CD4 antibody (aCD4; BioLegend 100435) or an anti-mouse CD8 antibody (aCD8; BioLegend 100735) was added to some cultures at the final concentration of 5 μg/mL.
# [6] = system: SPESP1-B-specific Th cells; assay: IFN-γ ELISA of SPESP1-B peptide-specific Th cells; type: cell-based, human
# Experimental: as §1
# The IFN-γ concentrations of the culture supernatants were determined in the same manner as in Test 8, except that SPESP1-B peptide was used instead of SYCP3-A peptide. […]
# HLA-DR53 [7] = molecular target: T1, HLA-DR53; assay: HLA type restriction of SPESP1-B with L-DR53; type: cell-based
# Experimental: The IFN-γ concentrations of the culture supernatants were determined in the same manner as in Test 8, except that SPESP1-B peptide was used instead of SYCP3-A peptide. Two SPESP1-B-specific Th cell clones (HK15 and HK18) were established from one healthy donor. The peptide-specific IFN-γ production was suppressed when the anti-HLA-DR antibody (aDR) was added to the clones.
# T1 sequence (P13762 30-266): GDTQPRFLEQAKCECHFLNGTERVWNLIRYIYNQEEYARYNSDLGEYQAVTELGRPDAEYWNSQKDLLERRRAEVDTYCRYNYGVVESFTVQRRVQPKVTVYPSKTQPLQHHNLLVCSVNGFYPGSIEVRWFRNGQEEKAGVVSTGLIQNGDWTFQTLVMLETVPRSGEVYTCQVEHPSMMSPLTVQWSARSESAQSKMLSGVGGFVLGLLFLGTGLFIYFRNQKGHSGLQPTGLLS
# T1 sequence (P01903 26-254): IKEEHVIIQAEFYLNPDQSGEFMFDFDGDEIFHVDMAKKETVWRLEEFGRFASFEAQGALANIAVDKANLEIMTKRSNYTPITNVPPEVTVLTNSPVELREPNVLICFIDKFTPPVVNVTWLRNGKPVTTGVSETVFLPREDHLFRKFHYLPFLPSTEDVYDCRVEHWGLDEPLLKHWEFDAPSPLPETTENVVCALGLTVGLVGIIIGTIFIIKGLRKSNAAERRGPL
compound,measurement,setting,value
QQQKILQQSRIVQSQRLKT (listed as Homo sapiens) [SYCP3-A],peptide-specific IFN-γ production with anti-HLA-DR antibody,"[1]; SYCP3-A 3 μg/mL, aDR 5 μg/mL, Th clones from three healthy donors",suppressed
same,peptide-specific reaction (IFN-γ) of Th cells to L-DR53 cells,HLA-DR53 [2],strong peptide-specific reactions
same,reactivity in samples having no DR53 allele,HLA-DR53 [3],some reactivity
LGPAIRKQNLCAYHVQPRPL (listed as Homo sapiens) [p13],IFN-γ production with anti-HLA-DQ antibody,DAZL1-specific Th cells,suppressed
same,HLA type bound to stimulate Th cells,[4],HLA-DR8
"QQQKILQQSRVVQSQRLKT (listed as Homo sapiens) [SEQ ID NO: 31, 11th isoleucine residue of SYCP3-A peptide substituted with a valine residue]",reactivity of SYCP3-A peptide-specific Th cells compared with SYCP3-A,"[1]; modified or substituted peptide, similarly tested",not decreased
KILQQSRIVQSQ (listed as Homo sapiens) [T4],T-cell response of CD4-positive T-cells to partial peptide by ELISPOT,CD4-positive T-cells,responded
same,IFN-γ production of SYCP3-A peptide-specific Th cells,[1],Increased IFN-γ production
Nc1ccn([C@@H]2O[C@H](CO)[C@@H](O)C2(F)F)c(=O)n1 [gemcitabine],"gene expression levels of SYCP3, SPESP1, and DAZL1",[5],equivalent to those of the controls
QQKILQQSRIVQ (listed as Homo sapiens) [T2],T-cell response of CD4-positive T-cells to partial peptide by ELISPOT,CD4-positive T-cells,responded
QKILQQSRIVQS (listed as Homo sapiens) [T3],T-cell response of CD4-positive T-cells to partial peptide by ELISPOT,CD4-positive T-cells,responded
same,IFN-γ production of SYCP3-A peptide-specific Th cells,[1],Increased IFN-γ production
DVQKIVESQINFHGKKLKLGPAIRKQNLC (listed as Homo sapiens) [DAZL-1C],ability to activate helper T-cells (peptide-specific IFN-γ production),"helper T-cells; Balb/c mice, 100 μg i.d. Days 0 and 10, restimulation 2.5 μg/mL, 24 hours",activates helper T-cells
same,IFN-γ production specific to peptide with anti-CD4 antibody,helper T-cells; anti-mouse CD4 antibody 5 μg/mL,inhibited
DVQKIVESQINFHGKKLKLG (listed as Homo sapiens) [p11],HLA type bound to stimulate Th cells,[4],HLA-DR4/9/53
INFHGKKLKLGPAIRKQNLC (listed as Homo sapiens) [p12],HLA type bound to stimulate Th cells,[4],HLA-DR15
QNLNHYIQVLENLVRSVPS (listed as Homo sapiens) [SPESP1-B],peptide-specific IFN-γ production with anti-HLA-DR antibody,"[6]; clones HK15 and HK18, aDR",suppressed
same,IFN-γ production at low concentration,[6]; peptide 0.0003 μg/mL (serially diluted 0.0003 to 30 μg/mL),sufficient IFN-γ production
same,HLA type binding and Th cell stimulation,HLA-DR53 [7],binds to HLA-DR53 and stimulates Th cells
